Experimental data taken from patent US20210113540A1, “TREATMENT AGENT AND PHARMACEUTICAL COMPOSITION FOR GLIOMA” (NATIONAL UNIVERSITY CORPORATION HOKKAIDO UNIVERSITY, priority 2018, published 2021).
Where two headings read alike, the source gives them in different places.

System: Glioma-initiating cell E6R
Test: Cell growth test (MTT) on GICR strain E6R
Assay type: cell-based
Conditions: Homo sapiens, 72 h
Experimental: GICR strain: Cell growth test was performed using E6R (Stem Cells. 2016 August; 34(8):2016-25.).
Cell culture solutions were obtained by mixing a medium prepared by adding various compounds, bFGF (Peprotech, 100-18B) and EGF (Peprotech, 100-15) to DMEM/Ham's F-12 medium (SIGMA, D8062) and a medium prepared by adding FCS (Hyclone, SH30910.03) to DMEM medium (Nacalai tesque, 08458-45) to a concentration of 10% for use.
Each compound adjusted to a predetermined concentration was dispensed into a 96-well plate (Falcon, 353072) at 80 μL/well, and E6 cells and E6R cells were seeded on the 96-well plate at 1000 cells/80 μL/well. After 3 days, 10 μL of an MTT reagent (DOJINDO, 341-01823) was added, the cells were incubated at 37° C. for 3 hours, the culture solution was removed, and 100 μL of DMSO was added. The absorbance at 570 nm was measured using Bio-Rad iMark (Bio-Rad, 168-1130JA). The growth inhibition rate at each test compound concentration was calculated by the following formula using the absorbance as an index of the viable cell count.
The growth inhibition rate at each compound concentration was determined, and the 50% growth inhibition concentration GI50 (μmol/L)] was calculated using XLfit. Growth inhibition rate (%)=(Amount of luminescence from wells supplemented with test compound)/(Amount of luminescence from wells supplemented with DMSO)×100
GIC and GICR strain: Cell growth test was performed using E6, E6R, E16, and E16R (Stem Cells. 2016 August; 34(8): 2016-25.).

[1] = MTT after 3 days, read-out: ER6 GI50
[2] = class of ER6 GI50, MTT after 3 days, read-out: Evaluation

Compound	GI50 [1] [nM]	GI50 [2] [nM]
O=C(O)c1cc(C2CC2)ccc1Nc1ccc2c(cnn2Cc2ccccc2)c1 [Compound 1, 2-((1-benzyl-1h-indazole-5-yl)amino)-5-cyclopropylbenzoate]	30.6	< 1000
O=C(O)c1cc(C2CC2)cnc1Nc1ccc2c(ccn2CC2CCCCC2)c1 [Compound 2, 2-((1-(cyclohexylmethyl)-1H-indole-5-yl)amino)-5-cyclopropylnicotinic acid]	82.6	< 1000
Cn1ccc2cc(Nc3ncc(C4CC4)cc3C(=O)O)cc(-c3ccc(C(F)(F)F)cc3)c21 [Compound 5]	< 0.14	< 1000
Cn1ccc2cc(Nc3ncc(C4CC4)cc3C(=O)O)cc(-c3cccc(Cl)c3)c21 [Compound 6, 2-((7-(3-chlorophenyl)-1-methyl-1H-indole-5-yl)amino)-5-cyclopropylnicotinic acid]	2.23	< 1000
Cn1ccc2cc(Nc3ncc(C4CC4)cc3C(=O)O)cc(-c3ccc(OC(F)(F)F)cc3)c21 [Compound 7, 5-cyclopropyl-2-((1-methyl-7-(4-(trifluoromethoxy)phenyl)-1H-indole-5-yl)amino)nicotinic acid]	< 0.14	< 1000
Cn1ccc2cc(Nc3ncc(C4CC4)cc3C(=O)O)cc(C3=CCOCC3)c21 [Compound 15, 5-cyclopropyl-2-((7-(3,6-dihydro-2H-pyran-4-yl)-1-methyl-1H-indole-5-yl)amino)nicotinic acid]	25.9	< 1000
Cn1ccc2cc(Nc3ncc(C4CC4)cc3C(=O)O)cc(-c3ccc(C#N)cc3)c21 [Compound 17, 2-((7-(4-cyanophenyl)-1-methyl-1H-indole-5-yl)amino)-5-cyclopropylnicotinic acid]	2.96	< 1000

Next, values leading:

GI50 [1] [nM]	GI50 [2] [nM]	Compound
11	< 1000	O=C(O)c1cc(C2CC2)cnc1Nc1cccc2c1ccn2-c1ccccc1 [Compound 3, 5-cyclopropyl-2-((1-phenyl-1H-indole-4-yl)amino)nicotinic acid]
1.69	< 1000	Cn1ccc2cc(Nc3ncc(C4CC4)cc3C(=O)O)cc(-c3ccccc3F)c21 [Compound 4, 5-cyclopropyl-2-((7-(2-fluorophenyl)-1-methyl-1H-indole-5-yl)amino)nicotinic acid]
4.35	< 1000	O=C(O)c1cc(C2CC2)cnc1Nc1cccc2c(-c3ccccc3)cccc12 [Compound 9, 5-cyclopropyl-2-((5-phenylnaphthalene-1-yl)amino)nicotinic acid]
1.77	< 1000	O=C(O)c1cc(C2CC2)cnc1Nc1ccc2c(-c3ccccc3)cccc2c1 [Compound 10, 5-cyclopropyl-2-((5-phenylnaphthalene-2-yl)amino)nicotinic acid]
4.77	< 1000	Cn1ccc2cc(Nc3ncc(C4CC4)cc3C(=O)O)cc(-c3ccccc3)c21 [Compound 11, 5-cyclopropyl-2-((1-methyl-7-phenyl-1H-indole-5-yl)amino)nicotinic acid]
23.9	< 1000	O=C(O)c1cc(C2CC2)cnc1Nc1ccc2c(ccn2-c2cccc(F)c2)c1 [Compound 12, 5-cyclopropyl-2-((1-(3-fluorophenyl)-1H-indole-5-yl)amino)nicotinic acid]
11.4	< 1000	O=C(O)c1cc(C2CC2)cnc1Nc1cc2ccn(Cc3ccccc3)c2cc1F [Compound 13, 2-((1-benzyl-6-fluoro-1H-indole-5-yl)amino)-5-cyclopropylnicotinic acid]
47.6	< 1000	O=C(O)c1cc(C2CC2)cnc1Nc1c(F)cc2c(ccn2Cc2ccccc2)c1F [Compound 14, 2-((1-benzyl-4,6-difluoro-1H-indole-5-yl)amino)-5-cyclopropylnicotinic acid]
3.19	< 1000	O=C(O)c1cc(C2CC2)cnc1Nc1ccc2c(-c3ccccc3)nccc2c1 [Compound 16, 5-cyclopropyl-2-((1-phenylisoquinoline-6-yl)amino)nicotinic acid]
